# US9346812B2, “Substituted pyrrolopyrimidine compounds, compositions thereof, and methods of treatment therewith” (Signal Pharmaceutical LLC, priority 2013, dated 2016)
# System: CAL51 cell proliferation
# Experiment: Cell Titer Glo Proliferation Assay (CAL51)
# Assay type: cell-based, human
# Conditions: Homo sapiens, CAL-51; CAL51 cell proliferation, 72 h, Cell Titer Glo luminescence; read-out: Act. Level
# Experimental: Cell Titer Glo Proliferation Assay. Triple negative breast cancer cell line CAL51 was purchased from DSMZ. […] Allcell lines were maintained in growth media consisting of 90% high glucose Dulbecco's Modified Eagle Medium or RPMI1640 (Invitrogen), 10% fetal bovine serum (Hyclone), and 2 mM L-glutamine (Invitrogen). […] After overnight culture, compound stock (30 mM) was diluted serially in DMSO, further diluted in growth media, and was added to each well as a 10× concentrated solution in a volume of 11 μL, mixed, and allowed to incubate with cells. The compound vehicle (DMSO) was maintained at a final concentration of 0.2% in all wells. After 72 h, 100 μL of Cell Titer Glo solution (Promega) was added to each well of the 96-well plate. The plate was placed on a shaker for 2 minutes. After 10 minutes incubation, the luminescence signal was detected with Envision microplate reader (Perkin Elmer).
row,SMILES,IC50 [nM]
1,"CNC(=O)c1ccc(Nc2nc(OC3CCCC3)c3c(-c4cccc(N)c4)c[nH]c3n2)c(OC)c1 [Example 65, 4-(5-(3-aminophenyl)-4-(cyclopentyloxy)-7H-pyrrolo[2,3-d]pyrimidin-2-ylamino)-3-methoxy-N-methylbenzamide]",< 100
2,"CNC(=O)c1ccc(Nc2nc(OC3CCCC3)c3c(-c4ccncc4)c[nH]c3n2)c(OC)c1 [Example 66, 4-(4-(cyclopentyloxy)-5-(pyridin-4-yl)-7H-pyrrolo[2,3-d]pyrimidin-2-ylamino)-3-methoxy-N-methylbenzamide]",< 100
3,"COc1nc(Nc2ccc(C(=O)N3CCOCC3)cc2Cl)nc2[nH]cc(-c3ccc(-c4nnc[nH]4)cc3)c12 [Example 68, (4-(5-(4-(4H-1,2,4-triazol-3-yl)phenyl)-4-methoxy-7H-pyrrolo [2,3-d]pyrimidin-2-ylamino)-3-chlorophenyl)(morpholino) methanone]",100 to 400
4,"Cc1nc2ccc(-c3c[nH]c4nc(Nc5ccc(C(=O)N(C)C)cc5C)nc(NC5CCOCC5)c34)cc2o1 [Example 69, N,N,3-trimethyl-4-(5-(2-methylbenzo[d]oxazol-6-yl)-4-(tetrahydro-2H-pyran-4-ylamino)-7H-pyrrolo[2,3-d]pyrimidin-2-ylamino)benzamide]",100 to 400
5,"Cc1nc2ccc(-c3c[nH]c4nc(Nc5ccc(C(=O)N(C)C)cc5C)nc(OC5CCOCC5)c34)cc2o1 [Example 70, N,N,3-trimethyl-4-(5-(2-methylbenzo[d]oxazol-6-yl)-4-(tetrahydro-2H-pyran-4-yloxy)-7H-pyrrolo[2,3-d]pyrimidin-2-ylamino)benzamide]",100 to 400
6,"COc1nc(Nc2ccc(C(=O)N(C)C)cc2Cl)nc2[nH]cc(-c3ccc4[nH]c(N)nc4c3)c12 [Example 71, 4-(5-(2-amino-1H-benzo[d]imidazol-5-yl)-4-methoxy-7H-pyrrolo[2,3-d]pyrimidin-2-ylamino)-3-chloro-N,N-dimethylbenzamide]",100 to 400
7,"CNc1nc(Nc2ccc(C(=O)N(C)C)cc2Cl)nc2[nH]cc(-c3ccc(-c4nnc[nH]4)cc3)c12 [Example 72, 4-(5-(4-(4H-1,2,4-triazol-3-yl)phenyl)-4-(methylamino)-7H-pyrrolo[2,3-d]pyrimidin-2-ylamino)-3-chloro-N,N-dimethylbenzamide]",400 to 1000
8,"COc1nc(Nc2ccc(C(=O)N(C)C)cc2C)nc2[nH]cc(-c3ccc4nc(C)oc4c3)c12 [Example 73, 4-(4-methoxy-5-(2-methylbenzo[d]oxazol-6-yl)-7H-pyrrolo[2,3-d]pyrimidin-2-ylamino)-N,N,3-trimethylbenzamide]",1000 to 10000
9,"Cc1nc2ccc(-c3c[nH]c4nc(Nc5ccc(C(=O)N6CCNCC6)cc5C)nc(NC5CCOCC5)c34)cc2o1 [Example 74, (3-methyl-4-(5-(2-methylbenzo[d]oxazol-6-yl)-4-(tetrahydro-2H-pyran-4-ylamino)-7H-pyrrolo [2,3-d]pyrimidin-2-ylamino)phenyl) (piperazin-1-yl)methanone]",100 to 400
10,"CNC(=O)c1ccc(Nc2nc(OC3CCCC3)c3c(-c4ccc(N(C)C)cc4)c[nH]c3n2)c(OC)c1 [Example 75, 4-(4-(cyclopentyloxy)-5-(4-(di-methylamino)phenyl)-7H-pyrrolo [2,3-d]pyrimidin-2-ylamino)-3-methoxy-N-methylbenzamide]",< 100
11,"CNC(=O)c1ccc(Nc2nc(OC3CCCC3)c3c(-c4ccc(OC)cc4)c[nH]c3n2)c(OC)c1 [Example 76, 4-(4-(cyclopentyloxy)-5-(4-methoxyphenyl)-7H-pyrrolo[2,3-d]pyrimidin-2-ylamino)-3-methoxy-N-methylbenzamide]",< 100
12,"CNC(=O)c1ccc(Nc2nc(OC3CCCC3)c3c(-c4ccc(C#N)cc4)c[nH]c3n2)c(OC)c1 [Example 77, 4-(5-(4-cyanophenyl)-4-(cyclopentyloxy)-7H-pyrrolo[2,3-d]pyrimidin-2-ylamino)-3-methoxy-N-methylbenzamide]",1000 to 10000
13,"CNC(=O)c1ccc(Nc2nc(OC3CCCC3)c3c(-c4ccc5c(ccn5C)c4)c[nH]c3n2)c(OC)c1 [Example 78, 4-(4-(cyclopentyloxy)-5-(1-methyl-1H-indol-5-yl)-7H-pyrrolo[2,3-d]pyrimidin-2-ylamino)-3-methoxy-N-methylbenzamide]",1000 to 10000
14,"CNC(=O)c1ccc(Nc2nc(OC3CCCC3)c3c(-c4cc[nH]n4)c[nH]c3n2)c(OC)c1 [Example 80, 4-(4-(cyclopentyloxy)-5-(1H-pyrazol-3-yl)-7H-pyrrolo[2,3-d]pyrimidin-2-ylamino)-3-methoxy-N-methylbenzamide]",< 100
15,"CNC(=O)c1ccc(Nc2nc(OC3CCCC3)c3c(-c4ccc5[nH]ccc5c4)c[nH]c3n2)c(OC)c1 [Example 81, 4-(4-(cyclopentyloxy)-5-(1H-indol-5-yl)-7H-pyrrolo[2,3-d]pyrimidin-2-ylamino)-3-methoxy-N-methylbenzamide]",400 to 1000
16,"CNC(=O)c1ccc(Nc2nc(OC3CCCC3)c3c(-c4cn[nH]c4)c[nH]c3n2)c(OC)c1 [Example 82, 4-(4-(cyclopentyloxy)-5-(1H-pyrazol-4-yl)-7H-pyrrolo[2,3-d]pyrimidin-2-ylamino)-3-methoxy-N-methylbenzamide]",< 100
17,"COc1nc(Nc2ccc(C(=O)N(C)C)cc2Cl)nc2[nH]cc(-c3ccc4[nH]c(C)nc4c3)c12 [Example 83, 3-chloro-4-(4-methoxy-5-(2-methyl-1H-benzo[d]imidazol-5-yl)-7H-pyrrolo[2,3-d]pyrimidin-2-ylamino)-N,N-dimethylbenzamide]",< 100
18,"C[C@@H](O)c1cccc(-c2c[nH]c3nc(Nc4ccc(C(=O)N(C)C)cc4Cl)nc(NC4CCOCC4)c23)c1 [Example 84, (R)-3-chloro-4-(5-(3-(1-hydroxyethyl)phenyl)-4-(tetrahydro-2H-pyrazin-4-ylamino)-7H-pyrrolo [2,3-d]pyrimidin-2-ylamino)-N,N-dimethylbenzamide]",100 to 400
19,"C[C@H](O)c1cccc(-c2c[nH]c3nc(Nc4ccc(C(=O)N(C)C)cc4Cl)nc(NC4CCOCC4)c23)c1 [Example 85, (S)-3-chloro-4-(5-(3-(1-hydroxy-ethyl)phenyl)-4-(tetrahydro-2H-pyran-4-ylamino)-7H-pyrrolo[2,3-d]pyrimidin-2-ylamino)-N,N-dimethylbenzamide]",< 100
20,"Cc1nc2ccc(-c3c[nH]c4nc(Nc5ccc(C(=O)N6CCOCC6)cc5C)nc(OC5CCCC5)c34)cc2o1 [Example 86, (4-(4-(cyclopentyloxy)-5-(2-methylbenzo[d]oxazol-6-yl)-7H-pyrrolo[2,3-d]pyrimidin-2-ylamino)-3-methylphenyl) (morpholino)methanone]",100 to 400
21,"COc1nc(Nc2ccc3[nH]ncc3c2)nc2[nH]cc(-c3ccc4nc(C)oc4c3)c12 [Example 87, N-(1H-indazol-5-yl)-4-methoxy-5-(2-methylbenzo[d]oxazol-6-yl)-7H-pyrrolo[2,3-d]pyrimidin-2-amine]",100 to 400
22,"COc1nc(Nc2ccc(-c3cn[nH]c3)cc2)nc2[nH]cc(-c3ccc4nc(C)oc4c3)c12 [Example 88, N-(4-(1H-pyrazol-4-yl)phenyl)-4-methoxy-5-(2-methylbenzo[d]oxazol-6-yl)-7H-pyrrolo[2,3-d] pyrimidin-2-amine]",100 to 400
23,"COc1nc(Nc2ccc(C(=O)N(C)C)cc2C)nc2[nH]cc(-c3ccncc3)c12 [Example 89, 4-(4-methoxy-5-(pyridin-4-yl)-7H-pyrrolo[2,3-d]pyrimidin-2-ylamino)-N,N,3-trimethylbenzamide]",100 to 400
24,"CNC(=O)c1ccc(Nc2nc(OC3CCOCC3)c3c(-c4ccc5nc(C)oc5c4)c[nH]c3n2)c(OC)c1 [Example 90, 3-methoxy-N-methyl-4-(5-(2-methylbenzo[d]oxazol-6-yl)-4-(tetrahydro-2H-pyran-4-yloxy)-7H-pyrrolo[2,3-d]pyrimidin-2-ylamino)benzamide]",< 100
25,"COc1cc(C(=O)N(C)C)ccc1Nc1nc(OC2CCCC2)c2c(-c3ccc4nc(C)oc4c3)c[nH]c2n1 [Example 91, 4-(4-(cyclopentyloxy)-5-(2-methylbenzo[d]oxazol-6-yl)-7H-pyrrolo[2,3-d]pyrimidin-2-ylamino)-3-methoxy-N,N-dimethylbenzamide]",100 to 400
26,"Cc1nc2ccc(-c3c[nH]c4nc(Nc5ccc(C(=O)N(C)C)cc5C)nc(O[C@H]5CC[C@H](O)CC5)c34)cc2o1 [Example 92, 4-(4-((1r,4r)-4-hydroxycyclo-hexyloxy)-5-(2-methylbenzo[d]oxazol-6-yl)-7H-pyrrolo[2,3-d]pyrimidin-2-ylamino)-N,N,3-trimethylbenzamide]",< 100
27,"Cc1cc(C(=O)N(C)C)ccc1Nc1nc(OC2CCOCC2)c2c(-c3ccncc3)c[nH]c2n1 [Example 93, N,N,3-trimethyl-4-(5-(pyridin-4-yl)-4-(tetrahydro-2H-pyran-4-yloxy)-7H-pyrrolo[2,3-d]pyrimidin-2-ylamino)benzamide]",< 100
28,"CNC(=O)c1ccc(Nc2nc(OC3CCCC3)c3c(-c4ccc5nc(C)oc5c4)c[nH]c3n2)c(C)c1 [Example 94, 4-(4-(cyclopentyloxy)-5-(2-methylbenzo[d]oxazol-6-yl)-7H-pyrrolo[2,3-d]pyrimidin-2-ylamino)-N,3-dimethylbenzamide]",400 to 1000
29,"Cc1nc2ccc(-c3c[nH]c4nc(Nc5ccc(C(=O)N(C)C)cc5C)nc(OC5CCN(C)CC5)c34)cc2o1 [Example 95, N,N,3-trimethyl-4-(5-(2-methylbenzo[d]oxazol-6-yl)-4-(1-methylpiperidin-4-yloxy)-7H-pyrrolo[2,3-d]pyrimidin-2-ylamino)benzamide]",400 to 1000
